From patent US20230077362A1 (CORTEVA AGRISCIENCE LLC, priority 2019, published 2023)
Read-outs that look alike come from different tables or passages of the source.

Key:
[1] = tested on: Cabbage Looper (Trichoplusia ni) ("CL"), second instar larvae; assay: Bioassay on cabbage looper (CL), 128-well diet tray assay; type: in vivo; settings: for CL rating: C = not tested, D = no activity noticed
Experimental: (§1) Certain molecules disclosed in this document were tested against BAW and CL using procedures described in the following examples. In the reporting of the results, the “BAW & CL Rating Table” was used (See Table Section).
(§2) Trays were covered with a clear self-adhesive cover and held at 25° C., 14:10 light-dark cycle for five to seven days. Percent mortality was recorded for the larvae in each well; activity in the eight wells was then averaged. The results are indicated in the table entitled “Table ABC: Biological Results” (See Table Section).

[2] = tested on: Beet Armyworm (Spodoptera exigua) ("BAW"), second instar larvae; assay: Bioassay on beet armyworm (BAW), 128-well diet tray assay; type: in vivo; settings: for pest or weed control at 50 µg/cm2: Spodoptera exigua; for BAW rating: C = not tested, D = no activity noticed
Experimental: as §1, §2

[3] = Trichoplusia ni, read-out: CL rating
[4] = Trichoplusia ni, read-out: CL (Biological Results, rating)
[5] = read-out: BAW (Biological Results, rating)

| Structure (SMILES) | pest or weed control at 50 µg/cm2 [1, 3] [%] | pest or weed control at 50 µg/cm2 ([2]; read-out: BAW rating) [%] | pest or weed control at 50 µg/cm2 [1, 4] [%] | pest or weed control at 50 µg/cm2 [2, 5] [%] | other results |
| --- | --- | --- | --- | --- | --- |
| COC(c1ccc(C)cc1N1C(=O)CS/C1=N\C(=O)Nc1ccc(-n2cnc(-c3ccc(OC(F)(F)F)cc3)n2)cc1Cl)C(F)(F)F (stereo not shown) [Compound J729, (Z)-1-(2-Chloro-4-(3-(4-(trifluoromethoxy)phenyl)-1H-1,2,4-triazol-1-yl)phenyl)-3-(3-(5-methyl-2-(2,2,2-trifluoro-1-methoxyethyl)phenyl)-4-oxothiazolidin-2-ylidene)urea] | 50 to 100 | 50 to 100 |  |  |  |
| Cc1cc(COCC(F)(F)F)c(N2C(=O)CS/C2=N\C(=O)Nc2ccc(-n3cnc(-c4ccc(OC(F)(F)F)cc4)n3)cc2Cl)cc1C [Compound J733, (Z)-1-(2-Chloro-4-(3-(4-(trifluoromethoxy)phenyl)-1H-1,2,4-triazol-1-yl)phenyl)-3-(3-(4,5-dimethyl-2-((2,2,2-trifluoroethoxy)methyl)phenyl)-4-oxothiazolidin-2-ylidene)urea] | 50 to 100 | 50 to 100 |  |  |  |
| Cc1ccc(COCC(F)(F)F)c(N2C(=O)CS/C2=N\C(=O)Nc2ccc(-c3ncn(-c4ccc(SC(F)(F)F)cc4)n3)cc2C)c1 [Compound J204, (Z)-1-(3-(5-Methyl-2-((2,2,2-trifluoroethoxy)methyl)phenyl)-4-oxothiazolidin-2-ylidene)-3-(2-methyl-4-(1-(4-((trifluoromethyl)thio)phenyl)-1H-1,2,4-triazol-3-yl)phenyl)urea] |  |  | 50 to 100 | 50 to 100 |  |
| CCOCc1ccc(C)cc1N1C(=O)CS/C1=N\C(=O)Nc1ccc(-c2ncn(-c3ccc(S(F)(F)(F)(F)F)cc3)n2)cc1C#N [Compound J582] | 50 to 100 | 50 to 100 |  |  |  |
| CC(C)c1ccc(C#N)cc1N1C(=O)CS/C1=N\C(=O)Nc1ccc(-c2cn(-c3ccc(S(F)(F)(F)(F)F)cc3)cn2)cc1F [Compound J605, (Z)-1-(3-(5-Cyano-2-isopropylphenyl)-4-oxothiazolidin-2-ylidene)-3-(2-fluoro-4-(1-(4-(pentafluoro-λ^6-sulfaneyl)phenyl)-1H-imidazol-4-yl)phenyl)urea] | 50 to 100 | 50 to 100 |  |  |  |
| COC(c1ccc(C)cc1N1C(=O)CS/C1=N\C(=O)Nc1ccc(-c2ncn(-c3ccc(C(F)(F)F)cn3)n2)cc1F)C(F)(F)F (stereo not shown) [Compound J377] |  |  |  |  | CL rating ([1]; Table ABC, species CL): A (50-100); BAW rating ([2]; Table ABC, species BAW): A (50-100) |
| CCCCc1ccc(OC)cc1N1C(=O)CS/C1=N\C(=O)Nc1ccc(-c2ncn(-c3ccc(OC(F)(F)F)cc3)n2)cc1F [Compound J45, (Z)-1-(3-(2-Butyl-5-methoxyphenyl)-4-oxothiazolidin-2-ylidene)-3-(2-fluoro-4-(1-(4-(trifluoromethoxy)phenyl)-1H-1,2,4-triazol-3-yl)phenyl)urea] |  |  | 50 to 100 | 50 to 100 |  |
| CC(C)c1ccc(C#N)cc1N1C(=O)CS/C1=N\C(=O)Nc1ccc(-c2ncn(-c3ccc(S(=O)(=O)C(F)(F)F)cc3)n2)cc1C#N [Compound J413, (Z)-1-(3-(5-Cyano-2-isopropylphenyl)-4-oxothiazolidin-2-ylidene)-3-(2-cyano-4-(1-(4-((trifluoromethyl)sulfonyl)phenyl)-1H-1,2,4-triazol-3-yl)phenyl)urea] | 50 to 100 | 50 to 100 |  |  |  |
| CCCN(CCC)c1ccc(C(C)C)c(N2C(=O)CS/C2=N\C(=O)Nc2ccc(-c3ncn(-c4ccc(OC(F)(F)F)cc4)n3)cc2C)c1 [Compound J130, (Z)-1-(3-(5-(Dipropylamino)-2-isopropylphenyl)-4-oxothiazolidin-2-ylidene)-3-(2-methyl-4-(1-(4-(trifluoromethoxy)phenyl)-1H-1,2,4-triazol-3-yl)phenyl)urea] |  |  | 50 to 100 | 50 to 100 |  |
| CCCc1ccc(N(C)C)cc1N1C(=O)CS/C1=N\C(=O)Nc1ccc(-c2ncn(-c3ccc([S+]([O-])C(F)(F)F)cc3)n2)cc1F (stereo not shown) [Compound J383, (Z)-1-(3-(5-(Dimethylamino)-2-propylphenyl)-4-oxothiazolidin-2-ylidene)-3-(2-fluoro-4-(1-(4-((trifluoromethyl)sulfinyl)phenyl)-1H-1,2,4-triazol-3-yl)phenyl)urea] | 50 to 100 | 50 to 100 |  |  |  |
| Cc1ccc(COCCC(F)(F)F)c(N2C(=O)CS/C2=N\C(=O)Nc2ccc(-c3ncn(-c4ccccc4)n3)cc2F)c1 [Compound J779, (Z)-1-(2-Fluoro-4-(1-phenyl-1H-1,2,4-triazol-3-yl)phenyl)-3-(3-(5-methyl-2-((3,3,3-trifluoropropoxy)methyl)phenyl)-4-oxothiazolidin-2-ylidene)urea] | 50 to 100 | 50 to 100 |  |  |  |
| Cc1ccc(OCCC(F)(F)F)c(N2C(=O)CS/C2=N\C(=O)Nc2ccc(-n3cnc(-c4ccc(OC(F)(F)F)cc4)n3)cc2)c1 [Compound J404, (Z)-1-(3-(5-Methyl-2-(3,3,3-trifluoropropoxy)phenyl)-4-oxothiazolidin-2-ylidene)-3-(4-(3-(4-(trifluoromethoxy)phenyl)-1H-1,2,4-triazol-1-yl)phenyl)urea] | 50 to 100 | 50 to 100 |  |  |  |
| Cc1cc(COCC(F)(F)F)c(N2C(=O)CS/C2=N\C(=O)Nc2ccc(-c3ncn(-c4ccc(S(F)(F)(F)(F)F)cc4)n3)cc2F)cc1C [Compound J497] |  |  |  |  | CL rating ([1]; Table ABC, species CL): A (50-100); BAW rating ([2]; Table ABC, species BAW): A (50-100) |
| CCOCc1ccc(C)cc1N1C(=O)CS/C1=N\C(=O)Nc1ccc(-c2ncn(-c3ccc(C(F)(F)C(F)(F)F)cc3)n2)cc1C [Compound J796, (Z)-1-(3-(2-(Ethoxymethyl)-5-methylphenyl)-4-oxothiazolidin-2-ylidene)-3-(2-methyl-4-(1-(4-(perfluoroethyl)phenyl)-1H-1,2,4-triazol-3-yl)phenyl)urea] |  |  |  |  | mortality at 50 µg/cm2 ([1]; Trichoplusia ni, Table ABC, species CL, 128-well diet tray assay, second instar larvae, read-out: CL rating (% control or mortality class)): 50 to 100%; BAW rating (% control or mortality class) ([2]; Table ABC, species BAW, 128-well diet tray assay, second instar larvae): A (50-100) |
| Cc1ccc(COCC(F)(F)F)c(N2C(=O)CS/C2=N\C(=O)Nc2ccc(-c3cn(-c4ccc(C(F)(F)F)cc4)cn3)cc2)c1 [Compound J516, (Z)-1-(3-(5-Methyl-2-((2,2,2-trifluoroethoxy)methyl)phenyl)-4-oxothiazolidin-2-ylidene)-3-(4-(1-(4-(trifluoromethyl)phenyl)-1H-imidazol-4-yl)phenyl)urea] | 50 to 100 | 50 to 100 |  |  |  |
| Cc1ccc(COCC(F)(F)F)c(N2C(=O)CS/C2=N\C(=O)Nc2ccc(-c3ncn(-c4ccc(OC(F)(F)F)cc4)n3)cc2C(F)F)c1 [Compound J215, (Z)-1-(2-(Difluoromethyl)-4-(1-(4-(trifluoromethoxy)phenyl)-1H-1,2,4-triazol-3-yl)phenyl)-3-(3-(5-methyl-2-((2,2,2-trifluoroethoxy)methyl)phenyl)-4-oxothiazolidin-2-ylidene)urea] |  |  | 50 to 100 | 50 to 100 |  |
| Cc1ccc(CC(F)(F)F)c(N2C(=O)CS/C2=N\C(=O)NCC(F)c2ccc(-c3ncn(-c4ccc(OC(F)(F)F)cc4)n3)cc2)c1 (stereo not shown) [Compound H13] |  |  | 50 to 100 | 50 to 100 |  |
| CC(C)c1ccc(N(C)C)cc1N1C(=O)CS/C1=N\C(=O)Nc1ccc(-c2ncn(-c3ccc(OC(F)(F)F)cc3)n2)cc1Br [Compound J219, (Z)-1-(2-Bromo-4-(1-(4-(trifluoromethoxy)phenyl)-1H-1,2,4-triazol-3-yl)phenyl)-3-(3-(5-(dimethylamino)-2-isopropylphenyl)-4-oxothiazolidin-2-ylidene)urea] |  |  | 50 to 100 | 50 to 100 |  |
| COc1ccc(C(C)C)c(N2C(=O)CS/C2=N\C(=O)Nc2ccc(-c3ncn(-c4ccc(C(F)(F)F)cn4)n3)cc2C)c1 [Compound J292, (Z)-1-(3-(2-Isopropyl-5-methoxyphenyl)-4-oxothiazolidin-2-ylidene)-3-(2-methyl-4-(1-(5-(trifluoromethyl)pyridin-2-yl)-1H-1,2,4-triazol-3-yl)phenyl)urea] |  |  | 50 to 100 | 50 to 100 |  |
| COc1ccc(C(C)C)c(N2C(=O)CS/C2=N\C(=O)Nc2ccc(-c3ncn(-c4ccc(C(F)(F)F)cc4)n3)cc2C)c1 [Compound J8, (Z)-1-(3-(2-Isopropyl-5-methoxyphenyl)-4-oxothiazolidin-2-ylidene)-3-(2-methyl-4-(1-(4-(trifluoromethyl)phenyl)-1H-1,2,4-triazol-3-yl)phenyl)urea] |  |  | 50 to 100 | 50 to 100 |  |
| CCCc1ccc(C)cc1N1C(=O)CS/C1=N\C(=O)Nc1ccc(-c2ncn(-c3ccc(S(F)(F)(F)(F)F)cc3)n2)cc1F [Compound J498] |  |  |  |  | CL rating ([1]; Table ABC, species CL): A (50-100); BAW rating ([2]; Table ABC, species BAW): A (50-100) |
| CC(C)c1ccc(Cl)cc1N1C(=O)CS/C1=N\C(=O)Nc1ccc(-c2ncn(-c3ccc(OC(F)(F)F)cc3)n2)cc1F [Compound J46, (Z)-1-(3-(5-Chloro-2-isopropylphenyl)-4-oxothiazolidin-2-ylidene)-3-(2-fluoro-4-(1-(4-(trifluoromethoxy)phenyl)-1H-1,2,4-triazol-3-yl)phenyl)urea] |  |  | 50 to 100 | 50 to 100 |  |
| Cc1ccc(COCC(F)(F)F)c(N2C(=O)CS/C2=N\C(=O)Nc2ccc(-c3ncn(-c4ccc(C(F)(F)F)cc4)n3)cc2F)c1C [Compound J680] |  |  |  |  | CL rating ([1]; Table ABC, species CL): A (50-100); BAW rating ([2]; Table ABC, species BAW): A (50-100) |
